SMILES strings stand for the structures.

A short description of this series: log p (partition coefficient octanol/water, determined experimentally from reversed phase HPLC). The series is classed as physicochemical. The settings on record: reversed phase hplc. An excerpt:
[log p=logarithm of the partition coefficient p of the substance between the solvents octanol and water, determined experimentally from reversed phase HPLC]

The compound `CCON=C(COc1ccc(-c2ccc(C3COC(c4c(F)cccc4F)=N3)cc2)cc1)c1ccc(Cl)cc1` (centres unmarked) [Example 131] displayed a chromatographic logP (A isomer) of 5.61 and a chromatographic logP (B isomer) of 5.54. On to `Cc1ccc(C(=O)COc2ccc(-c3ccc(C4COC(c5c(F)cccc5F)=N4)cc3)cc2)cc1C` (centres unmarked) [Example 148], for which the chromatographic logP came out at 4.62. As for `CON=C(COc1ccc(-c2ccc(C3COC(c4c(F)cccc4F)=N3)cc2)cc1)c1ccc(C)cc1` (centres unmarked) [Example 133], the chromatographic logP is, setting by setting: (A isomer) 5.07; (B isomer) 5.35. `CO/N=C(/COc1ccc(-c2ccc(C3COC(c4c(F)cccc4F)=N3)cc2)cc1)C1CC1` (centres unmarked) [Example 24]: under “E isomer”, the chromatographic logP was 4.9.

`CC(C#N)Oc1ccc(-c2ccc(C3COC(c4c(F)cccc4F)=N3)cc2)cc1Cl` (centres unmarked) [Example 95] came in with a chromatographic logP of 4.06. Turning to `CC(=NOC(C)C)C(C)Oc1ccc(-c2ccc(C3COC(c4ccccc4Cl)=N3)cc2)cc1Cl` (centres unmarked) [Example 145], the chromatographic logP is, setting by setting: (A isomer) 6.3; (B isomer) 6.44. Take `CC1(COc2ccc(-c3ccc(C4COC(c5c(F)cccc5F)=N4)cc3)cc2)OCCO1` (centres unmarked) [Example 98]: the chromatographic logP amounted to 3.77. In the case of `CC(=NOC(C)C)C(C)Oc1ccc(-c2ccc(C3COC(c4c(F)cccc4F)=N3)cc2)cc1` (centres unmarked) [Example 69], the chromatographic logP amounted to 4.47. Compound `CCON=C(COc1ccc(-c2ccc(C3COC(c4c(F)cccc4F)=N3)cc2)cc1)c1ccc(C(F)(F)F)cc1` (centres unmarked) [Example 112] registered a chromatographic logP (A isomer) of 5.87 and a chromatographic logP (B isomer) of 5.57. `CCC(Oc1ccc(-c2ccc(C3COC(c4c(F)cccc4F)=N3)cc2)cc1)C(=O)OC` (centres unmarked) [Example 19] showed a chromatographic logP of 4.18. Same read-out and setting: the same measure for `CCN(CC)C(=O)COc1ccc(-c2ccc(C3COC(c4c(F)cccc4F)=N3)cc2)cc1` (centres unmarked) [Example 15]: 3.35; for `CON=C(c1ccccc1F)C(C)Oc1ccc(-c2ccc(C3COC(c4c(F)cccc4F)=N3)cc2)cc1` (centres unmarked) [Example 108]: 5.01. On the same count and under the same terms, the result for `CCON=C(C)C(C)Oc1ccc(-c2ccc(C3COC(c4c(F)cccc4F)=N3)cc2)cc1` (single isomer, unassigned) [Example 70] reads 5.12; that for `CC(C)C(C)(C)C(=O)COc1ccc(-c2ccc(C3COC(c4c(F)cccc4F)=N3)cc2)cc1` (centres unmarked) [Example 68], 4.55. With `O=C(COc1ccc(-c2ccc(C3COC(c4c(F)cccc4F)=N3)cc2)cc1)C1(Cl)CC1` (centres unmarked) [Example 54], the chromatographic logP came out at 4.04. Take `CON=C(COc1ccc(-c2ccc(C3COC(c4c(F)cccc4F)=N3)cc2)cc1)c1cccc(C(F)(F)F)c1` (centres unmarked) [Example 121]: the chromatographic logP was 5.8 (A isomer) and 4.49 (B isomer). Regarding `CC(COc1ccc(-c2ccc(C3COC(c4ccccc4Cl)=N3)cc2)cc1)=NOCc1ccccc1` (centres unmarked) [Example 137], the chromatographic logP amounted to 5.55 (A isomer) and 5.62 (B isomer). As to `CCON=C(COc1ccc(-c2ccc(C3COC(c4c(F)cccc4F)=N3)cc2)cc1)c1ccc(C)cc1` (centres unmarked) [Example 134], the chromatographic logP reads like this: (A isomer) 5.42; (B isomer) 5.71. In turn, `CCON=C(C)C(C)Oc1ccc(-c2ccc(C3COC(c4ccccc4Cl)=N3)cc2)cc1` (single isomer, unassigned) [Example 85] had a chromatographic logP of 5.4. Take `CCON=C(C)C(C)Oc1ccc(-c2ccc(C3COC(c4ccccc4Cl)=N3)cc2)cc1Cl` (centres unmarked) [Example 144]: the chromatographic logP runs as follows: (A isomer) 5.83; (B isomer) 6.01. `O=C(COc1ccc(-c2ccc(C3COC(c4c(F)cccc4F)=N3)cc2)cc1)c1cc(Cl)ccc1Cl` (centres unmarked) [Example 132] came in with a chromatographic logP of 4.78. `CCON=C(C)C(C)Oc1ccc(-c2ccc(C3COC(c4ccccc4Cl)=N3)cc2)cc1` (centres unmarked) [Example 59]: the chromatographic logP worked out at 5.44 (A isomer) and 5.56 (B isomer). On the same counts, the results for `CC(=NOC(C)C)C(C)Oc1ccc(-c2ccc(C3COC(c4c(F)cccc4F)=N3)cc2)cc1Cl` (centres unmarked) [Example 146] are 5.87 and 6. As to `CC(COc1ccc(-c2ccc(C3COC(c4c(F)cccc4Cl)=N3)cc2)cc1)=NOC(C)C` (centres unmarked) [Example 124], the chromatographic logP was 5.78 (A isomer) and 5.88 (B isomer).

Consider `CC(C)C(C#N)Oc1ccc(-c2ccc(C3COC(c4c(F)cccc4F)=N3)cc2)cc1` (centres unmarked) [Example 17], for which the chromatographic logP worked out at 4.45. Regarding `CCCC(C#N)Oc1ccc(-c2ccc(C3COC(c4c(F)cccc4F)=N3)cc2)cc1Cl` (centres unmarked) [Example 91], the chromatographic logP was found to be 4.87. Consider `CON=C(COc1ccc(-c2ccc(C3COC(c4c(F)cccc4F)=N3)cc2)cc1)c1ccc(Cl)cc1` (centres unmarked) [Example 130], for which the chromatographic logP (A isomer) came to 5.27 and the chromatographic logP (B isomer) is 5.54. In the case of `CON=C(COc1ccc(-c2ccc(C3COC(c4c(F)cccc4F)=N3)cc2)cc1)c1ccc(C)c(C)c1` (centres unmarked) [Example 189], the chromatographic logP amounted to 5.58 (A isomer) and 5.29 (B isomer). As to `CCON=C(COc1ccc(-c2ccc(C3COC(c4c(F)cccc4F)=N3)cc2)cc1)C(C)(C)C` (centres unmarked) [Example 79], the chromatographic logP came to 5.95.

For the compound `CC(=O)C(C)Oc1ccc(-c2ccc(C3COC(c4ccccc4Cl)=N3)cc2)cc1Cl` (centres unmarked) [Example 113], the chromatographic logP turned out to be 4.51. Regarding `CON=C(C)C(C)Oc1ccc(-c2ccc(C3COC(c4c(F)cccc4F)=N3)cc2)cc1` (centres unmarked) [Example 23], the chromatographic logP stood at 4.62 (A isomer) and 4.71 (B isomer). On the same counts, the results for `C=CCON=C(C)COc1ccc(-c2ccc(C3COC(c4ccccc4Cl)=N3)cc2)cc1` (centres unmarked) [Example 142] are 5.12 and 5.2. With `CON=C(C)C(C)(C)Oc1ccc(-c2ccc(C3COC(c4c(F)cccc4F)=N3)cc2)cc1Cl` (centres unmarked) [Example 170], the chromatographic logP amounted to 5.61. Take `CC(COc1ccc(-c2ccc(C3COC(c4ccccc4Cl)=N3)cc2)cc1)=NOC(C)C` (centres unmarked) [Example 135]: the chromatographic logP stood at 5.53 (A isomer) and 5.61 (B isomer).

Take `C=CCON=C(C)C(C)Oc1ccc(-c2ccc(C3COC(c4c(F)cccc4Cl)=N3)cc2)cc1` (centres unmarked) [Example 120]: the chromatographic logP was 5.7 (A isomer) and 5.81 (B isomer).

The compound `O=C(COc1ccc(-c2ccc(C3COC(c4c(F)cccc4F)=N3)cc2)cc1)c1ccc(OC(F)F)cc1` (centres unmarked) [Example 114] had a chromatographic logP of 4.16. The compound `CCON=C(C)C(C)(C)Oc1ccc(-c2ccc(C3COC(c4c(F)cccc4Cl)=N3)cc2)cc1` (centres unmarked) [Example 161] registered a chromatographic logP of 5.88. As for `CCOC(=O)C(C)Oc1ccc(-c2ccc(C3COC(c4c(F)cccc4F)=N3)cc2)cc1` (centres unmarked) [Example 3, 2-(2,6-difluorophenyl)-4-[4'-(1-ethoxycarbonyl-eth-1-yl-oxy)-biphenyl-4-yl]-1,3-oxazoline], the chromatographic logP was 4.12. Regarding `CON=C(COc1ccc(-c2ccc(C3COC(c4c(F)cccc4F)=N3)cc2)cc1)c1ccc(OC(F)(F)C(F)F)cc1` (centres unmarked) [Example 157], the chromatographic logP by setting is: (A isomer) 5.28; (B isomer) 5.04. Compound `CC(=O)C(C)(C)Oc1ccc(-c2ccc(C3COC(c4ccccc4Cl)=N3)cc2)cc1Cl` (centres unmarked) [Example 173] had a chromatographic logP of 5.02. Still for that read-out and setting: the result for `CC(C)C(C#N)Oc1ccc(-c2ccc(C3COC(c4c(F)cccc4F)=N3)cc2)cc1Cl` (centres unmarked) [Example 102] reads 4.84.

As to `CON=C(C)C(C)(C)Oc1ccc(-c2ccc(C3COC(c4ccccc4Cl)=N3)cc2)cc1Cl` (centres unmarked) [Example 175], the chromatographic logP amounted to 6.06. Still for that read-out and setting: the same measure for `CCON=C(C)C(C)(C)Oc1ccc(-c2ccc(C3COC(c4c(F)cccc4F)=N3)cc2)cc1Cl` (centres unmarked) [Example 171]: 5.05. Compound `CON=C(COc1ccc(-c2ccc(C3COC(c4c(F)cccc4F)=N3)cc2)cc1)c1ccc(OC)cc1` (centres unmarked) [Example 149] registered a chromatographic logP (A isomer) of 4.7 and a chromatographic logP (B isomer) of 4.91. `CC(=O)C(C)(C)Oc1ccc(-c2ccc(C3COC(c4c(F)cccc4F)=N3)cc2)cc1Cl` (centres unmarked) [Example 153] returned a chromatographic logP of 4.61. Turning to `CCON=C(C)C(C)Oc1ccc(-c2ccc(C3COC(c4c(F)cccc4F)=N3)cc2)cc1` (centres unmarked) [Example 48], the chromatographic logP by setting is: (A isomer) 5.02; (B isomer) 5.13.

Turning to `CCON=C(C)COc1ccc(-c2ccc(C3COC(c4c(F)cccc4Cl)=N3)cc2)cc1` (centres unmarked) [Example 81], the chromatographic logP was 4.98. `CCON=C(C)C(C)Oc1ccc(-c2ccc(C3COC(c4c(F)cccc4Cl)=N3)cc2)cc1` (centres unmarked) [Example 62] came in with a chromatographic logP (A isomer) of 5.31 and a chromatographic logP (B isomer) of 5.42. In turn, `CON(C)C(=O)COc1ccc(-c2ccc(C3COC(c4c(F)cccc4F)=N3)cc2)cc1` (centres unmarked) [Example 34] showed a chromatographic logP of 3.07. Take `CCON=C(COc1ccc(-c2ccc(C3COC(c4c(F)cccc4F)=N3)cc2)cc1)c1ccc(C)c(C)c1` (centres unmarked) [Example 190]: the chromatographic logP by setting is: (A isomer) 5.94; (B isomer) 5.62.

In the case of `C=CCON=C(C)COc1ccc(-c2ccc(C3COC(c4c(F)cccc4Cl)=N3)cc2)cc1` (centres unmarked) [Example 125], the chromatographic logP is, setting by setting: (A isomer) 5.04; (B isomer) 5.11. Take `CON=C(COc1ccc(-c2ccc(C3COC(c4c(F)cccc4Cl)=N3)cc2)cc1)c1ccccc1` (centres unmarked) [Example 94]: the chromatographic logP stood at 5.25. The same measure, in the same setting: the result for `CCOC(COc1ccc(-c2ccc(C3COC(c4c(F)cccc4F)=N3)cc2)cc1)OCC` (centres unmarked) [Example 43] reads 4.44; that for `CCOC(=O)C(CC)Oc1ccc(-c2ccc(C3COC(c4c(F)cccc4F)=N3)cc2)cc1` (centres unmarked) [Example 11], 4.53. As for `CON=C(COc1ccc(-c2ccc(C3COC(c4c(F)cccc4F)=N3)cc2)cc1)c1cccc(Cl)c1` (centres unmarked) [Example 115], the chromatographic logP worked out at 5.52 (A isomer) and 5.19 (B isomer). As to `CON=C(COc1ccc(-c2ccc(C3COC(c4c(F)cccc4F)=N3)cc2)cc1)c1ccccc1` (centres unmarked) [Example 27], where the note is “A isomer”, the chromatographic logP was 4.74.

One may read the chromatographic logP as a lipophilicity value derived from retention on a column. A high value points to a more lipophilic compound.
